Assay results as given in patent US20050027016A1, “Polyamine compounds and compositions for use in conjection with cancer therapy” (priority 2002, published 2005).
Where two headings read alike, the source gives them in different places.

Key:
[1] = molecular target: helical B-DNA; test: DNA binding/denaturation/precipitation from solution
Description: The chemoprotective polyamines of the invention are also able to bind, denature and precipitate DNA from solution As is known in the field, as the concentration of polyamine is increased, there is a point where polyamine binding to helical B-DNA induces single-stranded ‘bubbles’ and conversion to other forms of DNA structure, such as 2-DNA (Feuerstein, B. et al. Nuc. Acids Res. 17:6883-6892, 1989; Basu, H. and Marton, L. Biochem. J. 244:243-246, 1987), as well as precipitating the DNA from solution.
This relationship between arm length of the chemoprotective polyamine and increased ability to disrupt and denature B-DNA structure is also a unique aspect of this invention. The increased ability to bind DNA and disrupt its helical structure may also contribute to the molecule's ability to protect cellular DNA against electrophilic chemotherapy drug metabolites and against oxygen free radicals generated during radiotherapy. Both of these toxic modalities are believed to require normal B-DNA helical structure within the cell's nuclear DNA in order to achieve chemical or physical disruption of the cellular DNA, the first step in the apoptotic cascade.

[2] = system: primary, diploid fibroblasts isolated from human skin; test: In vitro growth inhibition of primary diploid human skin fibroblasts; format: cell-based
Method: FIG. 2 illustrates the relationship between the number of aliphatic carbon atoms in each chemoprotective polyamine side chain (‘arm’) and the respective IC50 dose for inhibition of human fibroblast growth.
The in vitro growth inhibitory effects of certain of the chemoprotective polyamines of the invention were measured using primary, diploid fibroblasts isolated from human skin.

[3] = system: 23SK skin cells; test: Cell cycle distribution by flow cytometry in 23SK skin cells; format: cell-based, human; conditions: for Cell Cycle Distribution At IC80 Dose: G1 / Cell Cycle Distribution At IC80 Dose: G2/M / Cell Cycle Distribution At IC80 Dose: S: 23SK cells
Description: FIGS. 5A-5D are cell histograms showing the results from flow cytometry analysis of chemoprotective polyamine-treated 23SK skin cells.
In FIG. 5, cell histograms showing the results from flow cytometry analysis of chemoprotective polyamine-treated 23SK skin cells are shown. […] The transient nature of the cell cycle block induced by chemoprotective polyamines is believed to be an important aspect of their efficacy, i.e., their ability to block cell cycle progression in stem cells during the course of chemo- or radiotherapy, and the resumption of normal stem cell division after a given cancer therapy course has been completed.

[4] = system: p21; test: p21 induction in 23SK human skin cells by western analysis; format: cell-based; conditions: 30 hr exposure
Method: FIGS. 3A and 3B illustrate the level of induced p21 protein seen in diploid human fibroblasts after a 30 hr exposure to each of the indicated chemoprotective polyamines. […] In these experiments, the 23SK human skin cells were exposed for 30 hr to an “ICso” dose of each of the indicated chemoprotective polyamines and then lysed. Cell extracts were then prepared in order to measure p21 levels by western analysis (FIG. 3A).
FIG. 3 illustrates that chemoprotective polyamines are able to induce expression of the negative cell cycle regulatory protein, p21, after exposing the human skin cells to the polyamine molecules. […] In these experiments, the 23SK human skin cells were exposed for 30 hr to an “IC80” dose of each of the indicated chemoprotective polyamines and then lysed. Cell extracts were then prepared in order to measure p21 levels by western analysis (FIG. 3A). Although the ability of modified polyamines to induce p21 is known in the literature (Kramer, D. et al., Cancer Res. 59:1278-1286, 1999), it is a novel aspect of this invention that those chemoprotective polyamines with longer aliphatic “arms” were better able to induce expression of p21 as shown in FIG. 4.

[5] = system: Cytoxan-induced alopecia in the rat model; format: in vivo; conditions: rat pups, 35 ug/gm i.p., approximately 7 days after challenge
Description: FIGS. 6A-6E illustrate the efficacy of each of the indicated chemoprotective polyamines in protecting against Cytoxan-induced alopecia in the rat model Hussein et al., 1990, infra). In this protocol (See Example 2), chemoprotective polyamines are applied topically to the rat pups' backs in an alcohol:water delivery vehicle, once per day, for five days before and five days after a single systemic dose of Cytoxan.
The efficacy of […] polyamines in reducing or preventing chemotherapy-induced alopecia in a rat model was examined. This animal model mimics many of the features found in chemotherapy-induced alopecia seen in humans and is considered a clinically relevant model for testing novel therapeutics.
Induction of alopecia by cytoxan (CTX). Lactating Sprague Dawley mother rats with rat pups were purchased from Harlan Sprague Dawley (Indianapolis, Ind.). The mother rats were given food and water ad libitum. The rats pups were tested in the model of chemotherapy-induced alopecia described by Hussein A. M. et al., Science: 249, 1564 (1990). Cytoxan (CTX), a chemotherapeutic widely used in the treatment of cancer, was used to induce alopecia in the rats. […]
Approximately 7 to 10 days after CTX treatment, the pups were evaluated for alopecia Hair loss was evaluated using a modified alopecia-scoring index described by Chen G. et al., Int. […]

[6] = Expt. 1 (first or only value in cell), read-out: DNA Bind/ppt. IC50, Expt. 1
[7] = Expt. 1, read-out: IC50 (drug concentration that caused a 50% inhibition of cell growth), Expt. 1
[8] = Expt. 2, read-out: IC50 (drug concentration that caused a 50% inhibition of cell growth), Expt. 2
[9] = Expt. 2 (second value in cell), read-out: DNA Bind/ppt. IC50, Expt. 2
[10] = 23SK cells treated for 72 hr (FIG. 5C)

Compound | IC50 [1, 6] | IC50 [1, 9] | IC50 [2, 7] | IC50 [2, 8] | Cell Cycle Distribution At IC80 Dose: G1 [3] | Cell Cycle Distribution At IC80 Dose: G2/M [3] | Cell Cycle Distribution At IC80 Dose: S [3] | p21 fold-induction at IC80 Dose [4] | cells in G1 compartment [3, 10] | cells in S+G2 compartments [3, 10] | distribution within cell cycle compartments after drug removal ([3]; 72 hr treatment, then 48 hr in medium devoid of compound (FIG. 5D)) | hair loss induced [5]
CCNCCCCNCCCCNCCCCNCCCCNCC=C(CNCC)CNCCCCNCCCCNCCCCNCCCCNCC [PrC-113] |  |  |  |  | 77% | 14% | 8% |  |  |  |  | 
CCNCCCCNCC=C(CNCC)CNCCCCNCC [PrC-110] |  |  |  |  | 60% | 14% | 26% |  |  |  |  | 
CCNCCCCNCCCCNCCCCNCC=C(CNCC)CNCCCCNCCCCNCCCCNCC [PrC-112] |  |  |  |  | 61% | 16% | 23% |  |  |  |  | 
CN[C@H]1CCc2cc(OC)c(OC)c(OC)c2-c2ccc(OC)c(=O)cc21 [Colcemid, reference compound] |  |  |  |  | 8% | 81% | 11% |  |  |  |  | 
O=P1(N(CCCl)CCCl)NCCCO1 (stereo not drawn) [CTX, cyclophosphamide(cytoxan)] |  |  |  |  |  |  |  |  |  |  |  | 100%
CCNCCCCNCCCCNCC=C(CNCC)CNCCCCNCCCCNCC [PrC-111] |  |  |  |  | 60% | 14% | 25% |  |  |  |  | 

Further lines, with some results ahead:

IC50 [1, 6] | IC50 [1, 9] | Compound | IC50 [2, 7] | IC50 [2, 8] | Cell Cycle Distribution At IC80 Dose: G1 [3] | Cell Cycle Distribution At IC80 Dose: G2/M [3] | Cell Cycle Distribution At IC80 Dose: S [3] | p21 fold-induction at IC80 Dose [4] | cells in G1 compartment [3, 10] | cells in S+G2 compartments [3, 10] | distribution within cell cycle compartments after drug removal ([3]; 72 hr treatment, then 48 hr in medium devoid of compound (FIG. 5D)) | hair loss induced [5]
94 µM |  | CCNCCCCNCC=C(CS)CNCCCCNCC [PrC-114] | 850 µM | 240 µM |  |  |  |  |  |  |  | 
57 µM |  | CCNCCCCNCCCCNCCCCNCCCCNCC=C(CNC)CNCCCCNCCCCNCCCCNCCCCNCC [PrC-120] | 0.22 µM | 0.18 µM |  |  |  | 2.01 fold |  |  |  | 
82 µM | 63 µM | CCNCCCCNCCCCNCCCCNCC=C(CS)CNCCCCNCCCCNCCCCNCC [PrC-116] | 5.8 µM |  | 66% | 23% | 11% | 2.32 fold |  |  |  | 
49 µM |  | CCNCCCCNCCCCNCCCCNCCCCNCC=C(CNCCCCNCCCCNCCCCNCCCCNCC)CN(C)C [PrC-121] | 0.15 µM |  | 76% | 20% | 4% | 3.26 fold |  |  |  | 
37 µM | 83 µM | CCNCCCCNCCCCNCC=C(CS)CNCCCCNCCCCNCC [PrC-115] | 4100 µM | 1090 µM |  |  |  |  |  |  |  | 
58 µM | 57 µM | CCNCCCCNCCCCNCCCCNCCCCNCC=C(CS)CNCCCCNCCCCNCCCCNCCCCNCC [PrC-117] | 0.32 µM | 0.24 µM | 86% | 3% | 11% | ˜3.0 fold | 86.23% | 13.77% | basically returned to that seen in cells previously untreated with chemoprotective polyamine | 
